Measured values published in ChEMBL document CHEMBL4680067, “Identification of LASSBio-1945 as an inhibitor of SARS-CoV-2 main protease (MPRO) through in silico screening supported by molecular docking and a fragment-based pharmacophore model” (RSC Med Chem, 2021).

Columns and labels:
[1] = test system: Severe acute respiratory syndrome coronavirus 2; assay: Inhibition of SARS CoV-2 main protease at 50 uM by rapidfire high-throughput mass spectrometry relative to control
[2] = test system: SARS-CoV-2; assay: Antiviral activity against SARS CoV-2 infected in African green monkey Vero cells assessed as inhibition of viral replication measured after 72 hrs by qRT-PCR analysis; assay type: functional, organism-based; conditions: Severe acute respiratory syndrome coronavirus 2, Vero
[3] = Inhibition of SARS CoV-2 main protease by rapidfire high-throughput mass spectrometry; design: species or system Severe acute respiratory syndrome coronavirus 2
[4] = Inhibition of SARS CoV-2 main protease; design: species or system Severe acute respiratory syndrome coronavirus 2

O=C(Nc1ccccc1)Nc1cnc2ccc([N+](=O)[O-])cc2n1
inhibition [1]: 0.77%

Cc1cc(C(=O)N[C@@H](C)C(=O)N[C@H](C(=O)N[C@@H](CC(C)C)C(=O)N[C@H](/C=C/C(=O)OCc2ccccc2)C[C@@H]2CCNC2=O)C(C)C)no1
EC50 [2]: 16.8 µM

Cc1ncccc1NC(=O)Cc1cccc(Cl)c1
IC50 [3]: Not Active

O=C(CNc1c(-c2ccccc2)nc2ccccn12)N/N=C/c1cccc2ccccc12
inhibition [1]: 7.53%

CCCc1cc2c(cc1S(=O)(=O)N1CCN(c3ccccc3)CC1)OCO2
inhibition [1]: 68.3%
IC50 ([3]; read-out: IC50): 16 µM

Cc1csc(C(=O)N/N=C/c2cccnc2)c1N
inhibition [1]: -6.32%

Cc1[nH]c2ccccc2c1/C=N/N(C)C(=O)c1ccc2c(c1)OCO2
inhibition [1]: -6.66%

O=C(Cc1cccc(Cl)c1)Nc1cccnc1
IC50 ([3]; read-out: IC50): 53.7 µM

COc1ccc(/N=C2/C(=O)N(Cc3ccc4ccccc4c3)c3ccc(C(N)=O)cc32)cc1
IC50 [4]: 17 µM

Cc1ccc(NC(=O)Cc2cccc(Cl)c2)cn1
IC50 [3]: Not Active
